Experimental data reported in PubChem BioAssay AID1199 (EPA DSSTox, 2008).
Active and inactive are the calls of the source.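 The calls were made as follows: active = a tumour-causing dose and a tumour site recorded for mice in at least one sex group; inconclusive = only government mouse studies exist and were judged inadequate; inactive = mouse studies exist but none gave tumours.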

Tested on: mouse carcinogenicity bioassay, TD50 from CPDB
Experiment: DSSTox (CPDBAS) Carcinogenic Potency Database Summary Mouse Bioassay Results
Description: The Carcinogenic Potency Database (CPDB) is a unique and widely used international resource of the results of over 6500 chronic, long-term animal cancer tests on over 1500 chemical substances. The CPDB provides easy access to the bioassay literature, with qualitative and quantitative analyses of both positive and negative experiments that have been published over the past 50 years in the general literature and by the National Cancer Institute/National Toxicology Program. The CPDB standardizes the diverse literature of cancer bioassays that vary widely in protocol, histopathological examination and nomenclature, and in the published author's choices of what information to provide in their papers. Results are reported in the CPDB for tests in rats, mice, hamsters, dogs, and nonhuman primates, and are based on the most positive result among all experiments for each sex-species. The DSSTox CPDBAS (all species) file incorporates data from the CPDB Summary Tables for the full list of over 1500 chemical substances tested in at least one species. Summary bioassay results for Mouse (TD50, tumor sites, male, female, both sexes) are provided in the CPDB Summary Tables and the DSSTox CPDBAS file for over 1000 chemical substances.
TD50 is a standardized quantitative measure of carcinogenic potency (analogous to an LD50) and is reported in the CPDB Summary Table for each species. Activity Score for actives is computed by mapping of LOG10 (1/TD50_Mouse_mmol) activity values spanning range [MIN, MAX] onto Integer 1-100 Activity Score range, where 100 is highest potency and 1 is lowest: Activity Score = 100 * INTEGER[(log10(1/Activity) - MIN)/(MAX […] MIN)]. If activity is reported but no TD50_Mouse_mmol value is computed, such as for a mixture, the Activity Score is assigned the activity value "50". […] Target sites are reported for each sex-species group with a positive result in the CPDB on the basis of a positive author's opinion for the particular site, using all results from both the general literature and NCI/NTP bioassays. If a chemical has two or more target sites listed, the results may be from different experiments, and a single site may be a target organ in more than one experiment, as well. Blank entry in TargetSites field indicates no results reported.

[1] = TD50_Mouse_Note: no positive results, TargetSites_Mouse_Female: no positive results
[2] = TD50_Mouse_Note: TD50 is harmonic mean of more than one positive test, TargetSites_Mouse_Female: lung, vascular system
[3] = TargetSites_Mouse_Female: no positive results
[4] = TD50_Mouse_Note: TD50 is harmonic mean of more than one positive test, TargetSites_Mouse_Female: lung
[5] = TD50_Mouse_Note: TD50 is harmonic mean of more than one positive test, TargetSites_Mouse_Female: no positive results
[6] = TD50_Mouse_Note: TD50 is harmonic mean of more than one positive test, TargetSites_Mouse_Female: liver

C#C[C@]1(O)CC[C@H]2[C@@H]3CCC4=C(CCC(=O)C4)[C@H]3CC[C@@]21C
outcome (TD50_Mouse_Note: TD50 is harmonic mean of more than one positive test, greater than ten-fold variation among TD50 values for positive res, TargetSites_Mouse_Female: pituitary gland): active; no positive results | outcome [1]: inactive; no positive results

Nc1c(Cl)c(Cl)nc(C(=O)O)c1Cl
outcome [1]: inactive; no positive results

CCOc1ccc(NC(=O)CC(C)O)cc1 (configuration not stated)
outcome (TD50_Mouse_Note: TD50_Mouse_mmol was not calculated for this mixture, but Activiity Score is assigned value of 50 to indicate active, TargetSites_Mouse_Female: no positive results): active; kidney

O=C1O[C@H]([C@@H](O)CO)C(O)=C1O
outcome [1]: inactive; no positive results

Cc1cccc(OCC(O)CNC(C)(C)C)c1C (configuration not stated)
outcome [1]: inactive; no positive results

CCN(N)C=O
Potency [2]: 0.0318 mmol/kg/day

O=C1CCc2ccccc2O1
Potency (TargetSites_Mouse_Female: liver): 4.88 mmol/kg/day

CCNc1nc(Cl)nc(NCC)n1
outcome [1]: inactive; no positive results

Nc1ccc(N=Nc2ccc(N)cc2)cc1
outcome [1]: inactive; no positive results

Cc1ccccc1[N+](=O)[O-]
Potency (TD50_Mouse_Note: TD50 is harmonic mean of more than one positive test, TargetSites_Mouse_Female: large intestine, liver, vascular system): 0.933 mmol/kg/day

CC(COc1ccc(C(C)(C)C)cc1)OS(=O)OCCCl (configuration not stated)
Potency [3]: 0.472 mmol/kg/day

CCC(O)OC(O)CC (configuration not stated)
outcome [1]: inactive; no positive results

O=CNNC=O
Potency [4]: 7.59 mmol/kg/day

N#Cc1c(Cl)c(Cl)c(Cl)c(C#N)c1Cl
outcome [1]: inactive; no positive results

OC(O)C(Cl)(Cl)Cl
Potency [5]: 0.604 mmol/kg/day

C1C2OC2C2C1C1CC2C2OC12 (configuration not stated)
outcome [1]: inactive; no positive results

OCC1CO1 (configuration not stated)
Potency (TD50_Mouse_Note: TD50 is harmonic mean of more than one positive test, TargetSites_Mouse_Female: harderian gland, mammary gland, skin, subcutaneous tissue, uterus): 0.468 mmol/kg/day

c1ccc2ccccc2c1
Potency (TargetSites_Mouse_Female: lung): 1.27 mmol/kg/day

[N]=O
outcome [1]: inactive

c1ccc2c(c1)[nH]c1ccccc12
Potency (TD50_Mouse_Note: TD50 is harmonic mean of more than one positive test, TargetSites_Mouse_Female: liver, stomach): 0.981 mmol/kg/day

NNC=O
Potency (TD50_Mouse_Note: TD50 is harmonic mean of more than one positive test, harmonic mean of TD50 includes a value for upper 99% confidence li, TargetSites_Mouse_Female: lung): 0.606 mmol/kg/day

O=c1[nH]c(=O)n(C2CCCO2)cc1F (configuration not stated)
outcome [1]: inactive; no positive results

COC(=O)C1=CCCN(C)C1
Potency [2]: 0.206 mmol/kg/day

O=C(Oc1ccccc1)Oc1ccccc1
outcome [1]: inactive; no positive results

C=CF
Potency (TD50_Mouse_Note: TD50 is harmonic mean of more than one positive test, TargetSites_Mouse_Female: harderian gland, lung, mammary gland, vascular system): 0.176 mmol/kg/day

CNN
Potency (TD50_Mouse_Note: TD50 is harmonic mean of more than one positive test, TargetSites_Mouse_Female: liver, lung): 0.164 mmol/kg/day | Potency [4]: 0.0189 mmol/kg/day

CC(N)Cc1ccccc1 (configuration not stated)
outcome [1]: inactive; no positive results

CCOP(=S)(OCC)Oc1cc(C)nc(C(C)C)n1
outcome [1]: inactive; no positive results

ClC1C2(Cl)C3C4C5OC5C5C4C1(Cl)C(Cl)(C53)C2(Cl)Cl (configuration not stated)
outcome [1]: inactive; no positive results

O=NN1CCCC1
Potency: 0.00678 mmol/kg/day

CCCOC(=O)c1cc(O)c(O)c(O)c1
outcome [1]: inactive; no positive results

O=c1cc[nH]c(=O)[nH]1
Potency (TD50_Mouse_Note: TD50 is harmonic mean of more than one positive test, greater than ten-fold variation among TD50 values for positive res, TargetSites_Mouse_Female: urinary bladder): 24.5 mmol/kg/day

O=S(=O)(O)c1cc(S(=O)(=O)O)c2c(N=Nc3ccccc3)c(O)ccc2c1
outcome [1]: inactive; no positive results

[CH3][Hg][Cl]
Potency [5]: 0.00578 mmol/kg/day

CCn1c2ccccc2c2cc(N)ccc21
outcome (TD50_Mouse_Note: TD50 is harmonic mean of more than one positive test, TD50_Mouse_mmol was not calculated for this mixture, but Activiity, TargetSites_Mouse_Female: liver): active; liver | Potency [6]: 0.156 mmol/kg/day

O=[N+]([O-])c1ccc(Oc2ccc(Cl)cc2Cl)cc1
Potency [6]: 0.405 mmol/kg/day

CC(N)=O
Potency [3]: 51 mmol/kg/day

CC(CCl)OC(C)CCl (configuration not stated)
Potency [4]: 1.12 mmol/kg/day

CC(C)NCC(O)COc1cccc2ccccc12 (configuration not stated)
outcome [1]: inactive; no positive results
